Holding throughout (experiment): growth of human tumour cells (NCI), 48 h
For experiment [1], the system named is CCRF-CEM.
For experiment [2], the system named is HCT-15.
Experiment [3] concerns SK-OV-3.
For experiment [4], the system named is NCI-H23.
In experiment [5] the test system is NCI-H226.
Experiment [6] relates to OVCAR-8.
In experiment [7] the test system is T47D.
For experiment [8], the system named is SK-MEL-28.
Experiment [9] relates to RPMI-8226.
In experiment [10] the test system is OVCAR-5.
The subject of experiment [11] is MOLT-4.
Experiment [12] relates to HOP-92.
Experiment [13] relates to M14.
Experiment [14] relates to MDA-MB-231.
Experiment [15] relates to DU-145.
The test system of experiment [16] is OVCAR-3.
Experiment [17] has as its system HCC 2998.
Experiment [18] has as its system SW-620.
Experiment [19] concerns SF-539.
Experiment [20] relates to K562.

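All cell lines were grown in 96-well plates and treated with compound for 48 hours. GI50 = concentration required for 50% inhibition of growth.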 Activity calls are given as the source filed them. No stated cut-off is given here; in the data, active = GI50 up to about 1.1 µM and inactive = higher. Bounds are passed on as bounds.

Take `N#CC1=C2Sc3ccccc3N2[C@H](c2ccccc2)[C@H]2COC(=O)[C@@H]12`: the GI50 is 7.45 µM (inactive) in [1]; more than 100 µM in experiment [2]; > 100 µM (inactive) in experiment [3]; 77.3 µM (inactive) in experiment [4]; > 100 µM (inactive) in experiment [5]; > 100 µM (inactive) in [6]. Further, the GI50 is 35.6 µM (inactive) in experiment [7]; > 100 µM (inactive) in [8]; 22.6 µM (inactive) in experiment [9]; > 100 µM (inactive) in experiment [10]; 33.5 µM (inactive) in experiment [11]; > 100 µM (inactive) in experiment [12]. The GI50 in [13] was 52.4 µM (inactive); in experiment [14], > 100 µM (inactive); in experiment [15], > 100 µM (inactive); in experiment [16] it was > 100 µM (inactive); in [17] it was > 100 µM (inactive); in [18], 35.2 µM (inactive). The GI50 in experiment [19] is > 100 µM (inactive).

With `CCOC(=O)c1c(OCC)[nH]c(=O)c(C(c2ccc(F)cc2)c2c(O)c(C(=O)OCC)c(OCC)[nH]c2=O)c1O`, the GI50 is 33.1 µM (inactive) in experiment [1]; 18.4 µM in experiment [2]; 19.5 µM (inactive) in experiment [4]; 9.82 µM (inactive) in experiment [5]; 16.5 µM (inactive) in [20]; 14 µM (inactive) in experiment [6]. The GI50 is 4.44 µM (inactive) in experiment [7]; 11.9 µM (inactive) in [8]; 16.1 µM (inactive) in [9]; 29 µM (inactive) in experiment [10]; 20.1 µM (inactive) in [11]; 1.46 µM (inactive) in experiment [12]. Besides, the GI50 was 24.6 µM (inactive) in experiment [13]; 12.6 µM (inactive) in [14]; 11.1 µM (inactive) in experiment [15]; 15.4 µM (inactive) in experiment [16]; 18.1 µM (inactive) in experiment [17]; 17.3 µM (inactive) in experiment [18]. The GI50 in [19] was 10 µM (inactive).

Regarding `COc1cc2oc(-c3ccc4c(c3)OCO4)c(OC)c(=O)c2c(OC)c1O`, the GI50 was 34.7 µM (inactive) in [1]; 78.7 µM in experiment [2]; 39.4 µM (inactive) in [3]; > 100 µM (inactive) in [4]; > 100 µM (inactive) in [5]; 34.4 µM (inactive) in experiment [20]. In addition, the GI50 in experiment [6] was 32.8 µM (inactive); in [7] it was 31.5 µM (inactive); in [8] it was > 100 µM (inactive); in [10], > 100 µM (inactive); in experiment [11] it was 45.7 µM (inactive); in experiment [12], 13.6 µM (inactive). The GI50 in experiment [13] is > 100 µM (inactive); in experiment [14] it was 51.6 µM (inactive); in experiment [15], > 100 µM (inactive); in experiment [16], 44.2 µM (inactive); in experiment [17], 70.5 µM (inactive); in experiment [18], > 100 µM (inactive). Besides, the GI50 in experiment [19] was > 100 µM (inactive).

Consider `N#CC1=C(S)N(C2OC(CO)C(O)C(O)C2O)C(c2ccccc2)=CC1c1ccco1` (stereo not given), for which the GI50 in experiment [1] is 88.9 µM (inactive); in [2], 68.9 µM; in experiment [4], 59 µM (inactive); in [5], > 100 µM (inactive); in [20] it was 42.7 µM (inactive); in experiment [6] it was 40.4 µM (inactive). Further, the GI50 in experiment [7] was 4.36 µM (inactive); in [8], 91.6 µM (inactive); in experiment [9] it was 23.2 µM (inactive); in experiment [10] it was > 100 µM (inactive); in experiment [11] it was 35.2 µM (inactive); in [12], 32.6 µM (inactive). Moreover, the GI50 in [13] was 50.5 µM (inactive); in experiment [14], 54.5 µM (inactive); in [15] it was > 100 µM (inactive); in experiment [16], > 100 µM (inactive); in experiment [17] it was 28.4 µM (inactive); in experiment [19] it was 35.2 µM (inactive).

As for `C(=N\NC1=NCCN1)/c1cccc2cc3ccncc3nc12`, the GI50 in [1] was 1.1 µM (active); in experiment [2], 3.4 µM; in experiment [3], 11.3 µM (inactive); in experiment [4] it was 11.5 µM (inactive); in experiment [5], 8.28 µM (inactive); in [20] it was 1.36 µM (inactive). The GI50 in experiment [6] is 1.93 µM (inactive); in [7] it was 2.14 µM (inactive); in experiment [8], 10.1 µM (inactive); in experiment [9], 1.93 µM (inactive); in [11], 1.69 µM (inactive); in experiment [12], 1 µM (active). For the same compound, the GI50 in [13] is 12.6 µM (inactive); in experiment [14], 2.15 µM (inactive); in experiment [15], 7.23 µM (inactive); in [16] it was 4.81 µM (inactive); in experiment [17], 5.71 µM (inactive); in experiment [18] it was 1.94 µM (inactive). For the same compound, the GI50 in [19] was 5.85 µM (inactive).

For the compound `CC(=O)OCC1OC(n2c3c(cc(C#N)c2=O)CCCCCC3)C(OC(C)=O)C(OC(C)=O)C1OC(C)=O` (stereo not given), the GI50 in experiment [1] is > 100 µM (inactive); in experiment [2], more than 100 µM; in [4], > 100 µM (inactive); in experiment [5] it was > 100 µM (inactive); in experiment [20], > 100 µM (inactive); in experiment [6], > 100 µM (inactive). The GI50 in experiment [7] was 22.7 µM (inactive); in experiment [8], > 100 µM (inactive); in [9] it was > 100 µM (inactive); in experiment [10], > 100 µM (inactive); in [11], > 100 µM (inactive); in [12], > 100 µM (inactive). Moreover, the GI50 in experiment [13], in experiment [14], in experiment [15], in [16], in experiment [17] and in [19] was > 100 µM (inactive) in each case.

Take `CC(C)=C/C(CC(O)(C(F)(F)F)C(F)(F)F)=N\O`: the GI50 in [1] was > 100 µM (inactive); in experiment [2] it was more than 100 µM; in [3], > 100 µM (inactive); in experiment [4], > 100 µM (inactive); in experiment [5], > 100 µM (inactive); in experiment [20], > 100 µM (inactive). Further, the GI50 in experiment [6], in [7], in experiment [8], in [9], in experiment [10] and in experiment [11] was > 100 µM (inactive) each time. Moreover, the GI50 in experiment [12], in experiment [13], in [14], in experiment [15], in experiment [17] and in [18] was > 100 µM (inactive) in each case. Further, in experiment [19], the GI50 is > 100 µM (inactive).

With `NC(=O)c1cc2ccccc2o/c1=N/O`, the GI50 is > 100 µM (inactive) in [1]; more than 100 µM in [2]; > 100 µM (inactive) in experiment [3]; > 100 µM (inactive) in [4]; > 100 µM (inactive) in experiment [5]; > 100 µM (inactive) in [20]. Also, the GI50 in experiment [6], in experiment [7], in experiment [8], in experiment [9], in experiment [11] and in [12] was > 100 µM (inactive) in each case. Moreover, the GI50 in [13], in experiment [14], in [15], in experiment [16], in [17] and in experiment [18] was > 100 µM (inactive) each time. For the same compound, the GI50 in experiment [19] is > 100 µM (inactive).

(Values after ChEMBL document CHEMBL1201862, “PubChem BioAssay data set” (2004).)
